A word on the MIC: it is the lowest concentration that inhibits growth of the organism. What is called MBC is the lowest tested concentration that kills the bacteria rather than only halting them.

In patent US11691949B2, “Quinoline sulfonamide compounds and their use as antibacterial agents” (OTAGO INNOVATION LIMITED, priority 2017, dated 2023) one finds MIC and MBC data, which are given here for five molecules.

What all share (format): cell-based
The test system of assay [1] is S. uberis ATCC 19436. In words: MIC by broth microdilution, S. uberis. The settings on record: Streptococcus uberis. In outline:
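The MIC against S. uberis ATCC 19436 was the lowest compound concentration showing no growth by OD600 after 24 h at 37° C. with 200 rpm shaking. Cultures grown overnight were adjusted to OD600 ~0.025 so wells held approximately 5×10^5 cfu/mL in THB. Two-fold dilution series were made at a final volume of 200 μl. Media and untreated controls were run in triplicate on each plate.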
(Broth dilution looks for growth in wells or tubes with falling amounts of substance.)

The subject of assay [2] is S. aureus ATCC 6538. The assay is described as follows: MIC by broth microdilution, S. aureus. The settings on record: Staphylococcus aureus. The procedure, abridged:
(§1)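 Overnight cultures diluted to ~5×10^5 cfu/mL final; S. aureus in TSB and CAMHB, E. coli in LB and CAMHB, zinc sulphate to 50 μM final as required; two-fold serial dilutions. MIC = lowest concentration with no growth by OD600 after 24 h, 37° C, 200 rpm. MBC by Miles-Misra drop-plate viability count.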

The subject of a further assay is E. coli ATCC 10596. The assay is described as follows: MIC by broth microdilution, E. coli. The settings on record: Escherichia coli. The procedure, abridged:
as §1

Assay [3] has as its system S. uberis ATCC 19436. In words: MBC by Miles-Misra drop-plate method, S. uberis. The conditions noted are these: Streptococcus uberis. The protocol: (§2) Antibacterial susceptibility testing was performed in triplicate (biological) by measuring minimum inhibitory concentrations (MICs) by broth microdilution in 96-well flat bottom microtiter plates (ThermoFisher Scientific, New Zealand). S. uberis ATCC 19436, S. aureus ATCC 6538, or E. coli ATCC 10596 cells grown overnight were diluted to an OD600 of approximately 0.025, so that the final concentration of cells in the MIC assay was approximately 5×10^5 cfu/mL in media as follows: S. uberis; Todd Hewitt Broth (THB), S. aureus; Tryptic Soy Broth (TSB) and Cation Adjusted Muller Hinton Broth (CAMHB), and E. coli; Lysogeny Borth (LB) and CAMHB, before being dispensed into microtiter wells. As required additional sterile Zinc Sulphate (Heptahydrate) was supplemented into the media, so the final concentration was 50 μM. Test compounds were added to starting wells and two-fold serial dilutions were undertaken to generate a range of inhibitor concentrations at a final volume of 200 μl. Media and test compound-free (untreated) controls were included in each microtiter plate in triplicate. After 24 h incubation at 37° C. and 200 rpm, the OD600 of wells were read using a Varioskan Flash plate reader (ThermoFisher Scientific, New Zealand). The MIC was reported as the lowest concentration of the test compound for which no growth occurred, as determined by OD600 readings. The minimum bactericidal concentration (MBC) was determined using the Miles-Misra drop-plate method to measure the viability of cells in response to test compound challenge.

Assay [4] relates to S. aureus ATCC 6538. The assay is described as follows: MBC by Miles-Misra drop-plate method, S. aureus. The conditions noted are these: Staphylococcus aureus. The protocol: as §2
The test system of the next assay is E. coli ATCC 10536. In words: MBC by Miles-Misra drop-plate method, E. coli. The conditions noted are these: Escherichia coli. The protocol:
as §2

The mark [5] stands for this setting: ATCC19436, read-out: S. uberis ATCC 19436 MIC, No Zinc.
Where [6] appears, read: ATCC19436, read-out: S. uberis ATCC 19436 MIC, Zinc (50 μM).
Where [7] appears, read: ATCC6538, read-out: S. aureus ATCC 6538 MIC, No Zinc.
Setting [8] is: ATCC6538, read-out: S. aureus ATCC 6538 MIC, Zinc (50 μM).
[9] abbreviates: ATCC 10536 / ATCC 10596, read-out: E. coli ATCC 10536 MIC, No Zinc.
Setting [10] is: ATCC 10536 / ATCC 10596, read-out: E. coli ATCC 10536 MIC, Zinc (50 μM).
Setting [11] is: ATCC19436, read-out: S. uberis ATCC 19436 MBC, No Zinc.
Where [12] appears, read: ATCC19436, read-out: S. uberis ATCC 19436 MBC, Zinc (50 μM).
Where [13] appears, read: ATCC6538, read-out: S. aureus ATCC 6538 MBC, No Zinc.
Where [14] appears, read: ATCC6538, read-out: S. aureus ATCC 6538 MBC, Zinc (50 μM).
The mark [15] stands for this setting: ATCC10536, read-out: E. coli ATCC 10536 MBC, No Zinc.
Where [16] appears, read: ATCC10536, read-out: E. coli ATCC 10536 MBC, Zinc (50 μM).

Molecules are shown by their SMILES. ≈ marks a conversion by molar mass, not a printed value. Structures can show the parent of a compound that is named as a salt. Where two headings read alike, the source gives them in different places. A value given as a limit tells only on which side of the number the result lay.

On to `O=S(=O)(Nc1cccc2ccc(CNc3ccccc3O)nc12)c1ccc(C(F)(F)F)cc1` [ZDR171, N-(2-(((2-Hydroxyphenyl)amino)methyl)quinolin-8-yl)-4-(trifluoromethyl)benzenesulfonamide], for which the minimal inhibitory concentration (MIC) with S. uberis ATCC 19436 [1] (ATCC19436, No Zinc, read-out: S. uberis ATCC 19436 MIC) was 8 µg/mL (≈ 16.9 µM); with S. uberis ATCC 19436 [1] (ATCC19436, Zinc (50 μM), read-out: S. uberis ATCC 19436 MIC) it was 0.5 µg/mL (≈ 1.06 µM); with S. aureus ATCC 6538 [2] (ATCC6538, No Zinc, read-out: S. aureus ATCC 6538 MIC), 4 µg/mL (≈ 8.45 µM); in the assay with S. aureus ATCC 6538 [2] (ATCC6538, Zinc (50 μM), read-out: S. aureus ATCC 6538 MIC), 4 µg/mL (≈ 8.45 µM); with E. coli ATCC 10596 (ATCC 10536 / ATCC 10596, No Zinc, read-out: E. coli ATCC 10536 MIC), above 256 µg/mL; in the assay on E. coli ATCC 10596 (ATCC 10536 / ATCC 10596, Zinc (50 μM), read-out: E. coli ATCC 10536 MIC) it was above 256 µg/mL. The MBC in the assay with S. uberis ATCC 19436 [3] (ATCC19436, No Zinc, read-out: S. uberis ATCC 19436 MBC) was 8 µg/mL (≈ 16.9 µM); in the assay with S. uberis ATCC 19436 [3] (ATCC19436, Zinc (50 μM), read-out: S. uberis ATCC 19436 MBC), 0.5 µg/mL (≈ 1.06 µM); in the assay on S. aureus ATCC 6538 [4] (ATCC6538, No Zinc, read-out: S. aureus ATCC 6538 MBC) it was 16 µg/mL (≈ 33.8 µM); in the assay with S. aureus ATCC 6538 [4] (ATCC6538, Zinc (50 μM), read-out: S. aureus ATCC 6538 MBC), 32 µg/mL (≈ 67.6 µM); in the assay with E. coli ATCC 10536 (ATCC10536, No Zinc, read-out: E. coli ATCC 10536 MBC), above 256 µg/mL; in the assay on E. coli ATCC 10536 (ATCC10536, Zinc (50 μM), read-out: E. coli ATCC 10536 MBC), above 256 µg/mL.

In the case of `N=C(N)NCc1ccc2cccc(NS(=O)(=O)c3ccc(C(F)(F)F)cc3)c2n1` [ZDR187, N-(2-(Guanidinomethyl)quinolin-8-yl)-4-(trifluoromethyl)benzenesulfonamide trifluoroacetate], the MIC in the assay with S. uberis ATCC 19436 [1] (setting [5]) came out at 16 µg/mL; with S. uberis ATCC 19436 [1] (setting [6]), 0.5 µg/mL; with S. aureus ATCC 6538 [2] (setting [7]), 8 µg/mL; in the assay with S. aureus ATCC 6538 [2] (setting [8]) it was 8 µg/mL; in the assay on E. coli ATCC 10596 (setting [9]), 32 µg/mL; with E. coli ATCC 10596 (setting [10]), 16 µg/mL. In addition, the MBC was 16 µg/mL with S. uberis ATCC 19436 [3] (setting [11]); 8 µg/mL in the assay with S. uberis ATCC 19436 [3] (setting [12]); 32 µg/mL in the assay with S. aureus ATCC 6538 [4] (setting [13]); 32 µg/mL in the assay with S. aureus ATCC 6538 [4] (setting [14]); 64 µg/mL in the assay with E. coli ATCC 10536 (setting [15]); 16 µg/mL in the assay on E. coli ATCC 10536 (setting [16]).

As to `CN(C)CCCNC(=O)c1ccc2cccc(NS(=O)(=O)c3ccc(C(F)(F)F)cc3)c2n1` [ZDR224, N-(3-(Dimethylamino)propyl)-8-((4-(trifluoromethyl)phenyl)sulfonamido)quinoline-2-carboxamide trifluoroacetate], the MIC was 64 µg/mL in the assay with S. uberis ATCC 19436 [1] (setting [5]); 16 µg/mL with S. uberis ATCC 19436 [1] (setting [6]); 128 µg/mL in the assay on S. aureus ATCC 6538 [2] (setting [7]); 32 µg/mL in the assay with S. aureus ATCC 6538 [2] (setting [8]); 256 µg/mL in the assay with E. coli ATCC 10596 (setting [9]); 256 µg/mL in the assay with E. coli ATCC 10596 (setting [10]). The MBC is 64 µg/mL in the assay on S. uberis ATCC 19436 [3] (setting [11]); 8 µg/mL with S. uberis ATCC 19436 [3] (setting [12]); 128 µg/mL with S. aureus ATCC 6538 [4] (setting [13]); 32 µg/mL with S. aureus ATCC 6538 [4] (setting [14]); above 256 µg/mL in the assay on E. coli ATCC 10536 (setting [15]); 256 µg/mL in the assay on E. coli ATCC 10536 (setting [16]).

Consider `CN(C)CCCNC(=O)CNCc1ccc2cccc(NS(=O)(=O)c3ccc(C(F)(F)F)cc3)c2n1` [ZDR261, N-(3-(Dimethylamino)propyl)-2-(((8-((4-(trifluoromethyl)phenyl)sulfonamido)quinolin-2-yl)methyl)amino)acetamide di-trifluoroacetate], for which the MIC in the assay with S. uberis ATCC 19436 [1] (setting [5]) came to 32 µg/mL (≈ 61.1 µM); in the assay with S. uberis ATCC 19436 [1] (setting [6]), 16 µg/mL (≈ 30.6 µM); with S. aureus ATCC 6538 [2] (setting [7]), 32 µg/mL (≈ 61.1 µM); with S. aureus ATCC 6538 [2] (setting [8]), 32 µg/mL (≈ 61.1 µM); in the assay on E. coli ATCC 10596 (setting [9]) it was 64 µg/mL (≈ 122 µM); in the assay on E. coli ATCC 10596 (setting [10]), 64 µg/mL (≈ 122 µM). For the same molecule, the MBC was 16 µg/mL (≈ 30.6 µM) with S. uberis ATCC 19436 [3] (setting [11]); 16 µg/mL (≈ 30.6 µM) in the assay with S. uberis ATCC 19436 [3] (setting [12]); 128 µg/mL (≈ 244 µM) with S. aureus ATCC 6538 [4] (setting [13]); 64 µg/mL (≈ 122 µM) in the assay with S. aureus ATCC 6538 [4] (setting [14]); above 256 µg/mL in the assay on E. coli ATCC 10536 (setting [15]); above 256 µg/mL in the assay with E. coli ATCC 10536 (setting [16]).

For `O=C(CNCc1ccc2cccc(NS(=O)(=O)c3ccc(C(F)(F)F)cc3)c2n1)NCCN1CCCCC1` [ZDR269, N-(2-(Piperidin-1-yl)ethyl)-2-(((8-((4-(trifluoromethyl)phenyl)sulfonamido)quinolin-2-yl)methyl)amino)acetamide di-trifluoroacetate], the MIC came out at 4 µg/mL (≈ 7.28 µM) in the assay on S. uberis ATCC 19436 [1] (setting [5]); 8 µg/mL (≈ 14.6 µM) in the assay on S. uberis ATCC 19436 [1] (setting [6]); 32 µg/mL (≈ 58.2 µM) with S. aureus ATCC 6538 [2] (setting [7]); 64 µg/mL (≈ 116 µM) in the assay on S. aureus ATCC 6538 [2] (setting [8]); 64 µg/mL (≈ 116 µM) with E. coli ATCC 10596 (setting [9]); 64 µg/mL (≈ 116 µM) with E. coli ATCC 10596 (setting [10]). The MBC in the assay with S. uberis ATCC 19436 [3] (setting [11]) was determined as 4 µg/mL (≈ 7.28 µM); in the assay with S. uberis ATCC 19436 [3] (setting [12]), 16 µg/mL (≈ 29.1 µM); in the assay with S. aureus ATCC 6538 [4] (setting [13]), 64 µg/mL (≈ 116 µM); in the assay with S. aureus ATCC 6538 [4] (setting [14]) it was 128 µg/mL (≈ 233 µM); in the assay with E. coli ATCC 10536 (setting [15]) it was 64 µg/mL (≈ 116 µM); in the assay with E. coli ATCC 10536 (setting [16]), 64 µg/mL (≈ 116 µM).
